In ChEMBL document CHEMBL3507680, “University of Dundee, Gates Library screen for HepG2 cell viability”:

experiment: Human HepG2 cell viability assay in 384 well format; format: toxicity, cell-based; parameters: dose 125 nL, time 70.5 hour; concentration not given beside the values; details: HepG2 cells, read-out: Inhibition

In order of falling cytotoxicity at 70.5 h:
1. Cc1cccnc1NCCNC(=O)c1cnc(-c2ccccn2)nc1O  46.5%
2. CCn1ccnc1C1CCN(Cc2cccc(Cl)c2)CC1  37.8%
3. CCc1nccc(CN2CCC(CNC(=O)[C@H]3CC[C@H](C)CC3)C2)n1 (some centres not stated)  27.6%
4. COc1ccccc1C1(CNc2snc(Cl)c2C#N)CCCC1  19.8%
5. NC(=O)CNC(c1ccccc1)c1ccccc1  17.2%
6. O=C(O)C1CN(Cc2cnc(C3CCCCC3)nc2)CCO1 (configuration not stated)  17.1%
7. COCc1nc(C(=O)N2CCCCC2Cn2cc(C)cn2)cs1 (configuration not stated)  16.8%
8. Cc1cc(C)c(CCNC(=O)CN2CCCN(C(N)=O)CC2)c(C)c1  15.4%
9. N#Cc1ccc(CS(=O)(=O)NC(=O)c2ccc3c(c2)COC3)cc1  14.9%
10. CC(CC#N)N1CCN(C(=O)OC(C)(C)C)CC1 (configuration not stated)  13.3%
11. COc1cccc(-n2cc(-c3ccnc(NC(CO)C(C)C)n3)cn2)c1 (configuration not stated)  13.2%
12. Cc1ccc(N2CCCC(NCc3ccncc3)C2)nn1 (configuration not stated)  11.6%
13. CNC(=O)C1Cn2ccnc2C2(CCN(Cc3cccs3)CC2)O1 (configuration not stated)  11.6%
14. Cc1nn(CC(=O)NCc2cc3n(n2)CCCN(CC(C)C)C3)cc1Cl  9.44%
15. N#Cc1cccc(CN2Cc3nccn3CC(COCC3CC3)C2)c1 (configuration not stated)  8.65%
16. COCCO[C@H]1CCN(c2cc(OC)ncn2)[C@H]1Cc1cccnc1  7.05%
17. COCC1(CNC(=O)Nc2cc(F)ccc2OC)CCCC1  6.61%
18. Cc1nn2cc(CCNC(=O)c3cc(C(C)C)nn3C)nc2s1  6.04%
19. O=C(NC[C@H]1OC[C@@H]2CN(Cc3ccco3)CC[C@@H]21)c1cccnc1  6.02%
20. CC[S+]([O-])CCc1nc(CC(C)C)nn1-c1ccc2c(c1)OCCO2 (configuration not stated)  5.5%
21. Cc1cccc(CN2CCO[C@@H]3CC(COc4ccccn4)C[C@H]32)n1 (some centres not stated)  5.17%
22. O=C(c1ccoc1)N1CCn2cnc(COCC3CC3)c2C1  4.58%
23. Cc1cnnn1Cc1ncn2c1CN(Cc1cccs1)CCC2  4.51%
24. OCCN1CCN(Cc2cc(Cl)cc3cccnc23)CC1  4.47%
25. N#Cc1cccc(S(=O)(=O)NC(=O)COc2ccc3c(c2)CCC3)c1  4.27%
26. COCC(O)CN1CCC(NC(=O)c2cscc2C)CC1 (configuration not stated)  3.56%
27. CCN(Cc1cccc2c1OCO2)C(=O)NCCOC  3.33%
28. CCOCC(O)CN1CCN(C(=O)c2cc(Cl)ccc2F)CC1 (configuration not stated)  2.85%
29. Cc1cc(C)cc(NCCC(=O)NC2CCCCC2)c1  1.57%
30. Cc1ccc(NC(=O)NCCc2cnn(C)c2)c(N(C)C)n1  0.893%
31. O=C(CCCc1nc2ccccc2[nH]1)N1CCCC1c1ccccn1 (configuration not stated)  0.793%
32. Cc1cnc(CN(C)Cc2cc3c(cc2OC(F)F)OCO3)o1  0.766%
33. CC(C)(C)n1ncc2c(=O)[nH]c(N3CC(O)C3)nc21  0.684%
34. O=C(c1cnc(C2CC2)nc1O)N1CCN(Cc2ccccc2F)CC1  0.38%
35. COC(=O)CCNC(=O)c1nnn(-c2ccccc2)c1C(F)(F)F  0.121%
36. Cn1cc(CNC(=O)NCCOc2ccc(F)c(F)c2)cn1  -0.0625%
37. CCN(CC)C(CNS(=O)(=O)c1ccc(C(N)=O)cc1)c1ccco1 (configuration not stated)  -0.105%
38. Cc1ncc(-c2nc3cc(S(=O)(=O)N4CCCC4)ccc3n2C)cn1  -0.434%
39. CN1CCN([C@@H]2CCN(CC3=Cc4cc(Cl)ccc4OC3)C[C@H]2O)CC1  -0.445%
40. CCCOc1ccc(C(=O)Oc2cc(=O)n3cccc(C)c3n2)cc1  -0.525%
41. Cc1ccc(CN2Cc3nnn(C)c3C(COCc3ccccn3)C2)s1 (configuration not stated)  -0.991%
42. CC(NC(=O)COC1CCCC1)c1nc(-c2ccccc2)c[nH]1 (configuration not stated)  -1.37%
43. Cc1ccc(CN2C(=O)CC[C@]23CC[C@@H](NC2CCOC2)CC3)cc1 (some centres not stated)  -1.41%
44. O=C(Nc1cnn(CC(F)F)c1)c1cccc(-n2cnnn2)c1  -1.49%
45. CN(Cc1cn2c(n1)CN(C(N)=O)CC2)Cc1ccco1  -1.71%
46. COCCc1noc(CN2CCCCC2Cn2nc(C)cc2C)n1 (configuration not stated)  -1.86%
47. CCn1nnnc1-c1cccc(NC(=O)CCc2cnn(C)c2)c1  -2.12%
48. CCCS(=O)(=O)c1ncc(CN2CCC(C)CC2)n1CC1CCCO1 (configuration not stated)  -2.16%
49. CCC(C)N(C)CCNC(=O)NCc1cccc(-n2cncn2)c1 (configuration not stated)  -2.22%
50. COCC(=O)N[C@H](C)c1c(-c2ccc(Cl)cc2)noc1C(=O)O  -2.23%
51. COc1ccc(F)c(CN2CCCC(O)(CNC3CCCCC3)C2=O)c1 (configuration not stated)  -2.81%
52. Cc1ccc(NC(=O)c2ccc(CC3CC(=O)NC3=O)cc2)cc1O (configuration not stated)  -2.83%
53. CN(C)c1ccccc1C(=O)N1CCOC2(CNCCOC2)C1 (configuration not stated)  -2.92%
54. C[C@@H]1CN(C(=O)CCc2nncn2C)C[C@@]1(O)C1CCC1  -2.96%
55. O=C(C1CC=CC1)N1CCC2(CCN(Cc3cccc(F)c3)CC2)C1  -3.05%
56. CC(C)c1nnc(NC(=O)c2cccc(OCC(F)(F)F)n2)[nH]1  -3.15%
57. Cc1ocnc1C(=O)Nc1ccc(-c2nnc(N(C)C)o2)cc1  -3.15%
58. CCc1nc(C(=O)N2CCOCC2)nn1-c1ccccc1Cl  -3.34%
59. COc1ccc2cnn(CC(=O)NCC3CCCO3)c(=O)c2c1OC (configuration not stated)  -3.4%
60. COc1ccc(CCCN2C(=O)O[C@@H]3CN(C4CCOCC4)C[C@@H]32)cc1  -3.64%
61. CN(C)CCN(C)C[C@@H]1CN(Cc2cccc(O)c2)C[C@@H]1CO  -3.65%
62. Cc1cnn(CCC(=O)NC2CCc3nc(C)cn3C2)c1 (configuration not stated)  -3.94%
63. O=S(=O)(NCC1COCc2c(-c3ccncc3)nnn2C1)C1CC1 (configuration not stated)  -3.99%
64. O=C(C1CCCN(C2CCOCC2)C1)N1CCc2ncccc2C1 (configuration not stated)  -4.26%
65. Cc1noc2ncc(S(=O)(=O)Nc3cc(C(C)(C)C)n[nH]3)cc12  -4.7%
66. CS(=O)(=O)c1cccc(C(N)c2ccc(F)c(F)c2)c1 (configuration not stated)  -4.97%
67. c1cnc(N2CC[C@@H]3[C@@H]2CCN3Cc2cccs2)nc1  -4.98%
68. CCN(C(=O)CN1CCC(c2n[nH]c(C3CC3)n2)CC1)C1CC1  -5.09%
69. CCOC(=O)[C@]12CCCN(Cc3ccsc3)C[C@H]1CN(CCOC)C2  -5.12%
70. N#Cc1ccc(F)c(CN2CCCC2Cn2cccn2)c1 (configuration not stated)  -5.17%
71. O=C(c1ccc(N2CCCC2)nn1)N1CCCC(n2ccnc2)C1 (configuration not stated)  -5.71%
72. N#Cc1cccc(N2CCCC3(CN(C(=O)c4ccc[nH]4)CCO3)C2)c1 (configuration not stated)  -5.89%
73. Cc1ncc(Cl)c(C(=O)N2CCCC(n3nc(C)nc3C)C2)n1 (configuration not stated)  -6.14%
74. O=C(CCSc1ccccc1)NS(=O)(=O)c1ccc2c(c1)OCCO2  -6.91%
75. CC(C)c1nnc2n1CCN(C(=O)COc1ccc(C(N)=O)cc1)C2  -6.98%
76. CC(C)C(Sc1nnnn1C1CC1)C(=O)NCc1ccccc1 (configuration not stated)  -7.04%
77. CCc1nnc(CN2CCC3(CCC(=O)N(C4CCCC4)C3)CC2)o1  -7.05%
78. COc1ccc(CN2C[C@@H](O)[C@](O)(CNC(=O)c3ccccn3)C2)cc1  -7.06%
79. COc1cccc(C)c1C(=O)N1CCc2ncnc(NCCO)c2CC1  -7.07%
80. COC[C@@H]1CCC[C@@]12CN(C(=O)C1CCOCC1)CCO2  -7.08%
81. CN(CCNC(=O)c1cnc(-c2ccncc2)nc1)S(C)(=O)=O  -7.17%
82. c1ccc(CO[C@@H]2CN(Cc3nccs3)[C@@H]3COC[C@@H]32)nc1  -7.21%
83. Cc1cccc(C(=O)N2CCC(C(=O)c3cc(F)ccc3F)CC2)n1  -7.52%
84. Cn1cnc(C(=O)N2CC3(CCN(S(=O)(=O)c4ccccc4)C3)C2)c1  -7.62%
85. O=C(Nc1cnn(Cc2ccc(Cl)cc2)c1)N[C@@H]1C=C[C@H](CO)C1  -7.72%
86. Cc1nn(CCNc2ncnc3c2NC(=O)CN3)c(C)c1Cl  -8.12%
87. O=C1CC2(CCN(c3nccc(-c4cc(C(=O)O)ccn4)n3)CC2)CN1  -8.17%
88. NC(=O)C1CCN(C(=O)NCCOc2ccc3c(c2)OCO3)C1 (configuration not stated)  -8.31%
89. COCCNC(=O)CSCc1nc(O)c2cc(C(C)C)sc2n1  -8.44%
90. CNC(=O)CN1CCOCC2(CCCN(Cc3ccoc3)C2)C1 (configuration not stated)  -8.87%
91. COCCC(=O)N1CCC2(CN(Cc3ccc(OC)c(F)c3)C2)C1  -9.17%
92. Cc1cc(N2CCCC2c2nc(C)cc(CCC(=O)O)n2)ncn1 (configuration not stated)  -9.37%
93. Cn1cccc1CN(C(=O)CC(CC(=O)O)c1cccs1)C1CC1 (configuration not stated)  -9.4%
94. O=C(CN1C=Nc2ccccc2S1(=O)=O)NCc1ccccc1  -9.5%
95. CC(C)c1nccn1C1CCCN(C(=O)C2=NN(C)C(=O)CC2)C1 (configuration not stated)  -10.1%
96. COCC(=O)N1C[C@@H](c2cccc(OC)c2)[C@@]2(CCCCC(=O)N2)C1  -10.3%
97. NC(=O)c1cnc2n1CCN(C(=O)c1ccc(-c3cc[nH]n3)cc1)C2  -10.3%
98. CCOc1ccc(C(=O)N(C)C)cc1NC(=O)c1ccsc1  -10.6%
99. Cc1nn(C)c2nc(N(Cc3ccccc3)CC3CCCO3)sc12 (configuration not stated)  -11%
100. CN(CC(N)=O)S(=O)(=O)c1ccc(F)cc1Cl  -11.4%
101. CCNC(=O)N1CCC(Nc2nccc(NCC)n2)CC1  -11.4%
102. O=C(c1ccsc1)N1CC[C@@H](N2CCOCC2)[C@@H]1Cc1ccccc1  -11.8%
103. CC(=O)NCC(=O)N1CCOC2(CCCN(c3ccc(C)nn3)C2)C1 (configuration not stated)  -11.9%
104. Cc1ncsc1C(=O)N(C)Cc1ccsc1  -12.2%
105. O=C(CC(F)(F)F)N1CCc2onc(Cn3cccn3)c2C1  -13.4%
106. O=C(Nc1cccc(F)c1)N1CCN(Cc2noc(C3CC3)n2)CC1  -13.8%
107. CC(C)COCCC(=O)NS(=O)(=O)c1ccc(Cl)s1  -16.7%
108. O=S(=O)(Cc1ccc(F)cc1)NCCc1nnc2n1CCC2  -18.4%
109. CCn1ncc(C(=O)NCc2ccc(C)c(OC)c2)c1C(F)(F)F  -21.3%
110. CCCc1nn(Cc2ccc(Br)s2)c(=O)o1  -23.4%
111. CC(NC(=O)NCc1cccnc1N(C)C)c1cccs1 (configuration not stated)  -23.6%
112. COc1cc(C(=O)NCC2CCCO2)nc2c(C)cc(F)cc12 (configuration not stated)  -25.4%
